Test results taken from patent US10442807B2, “Aryl substituted bicyclic compounds as herbicides” (FMC Corporation, priority 2015, dated 2019).

Experiments:
Format in all cases: in vivo
[1] = tested on: barnyardgrass (Echinochloa crus-galli); experiment: Test A preemergence, directed soil spray, visual injury rating; conditions: approx. 10 d, 0 = no effect, 100 = complete control
Source text: (§1) Seeds of plant species selected from barnyardgrass (Echinochloa crus-galli), kochia (Kochia scoparia), ragweed (common ragweed, Ambrosia elation), ryegrass, Italian (Italian ryegrass, Lolium multiflorum), foxtail, giant (giant foxtail, Setaria faberii), and pigweed (Amaranthus retroflexus), were planted into a blend of loam soil and sand and treated preemergence with a directed soil spray using test chemicals formulated in a non-phytotoxic solvent mixture which included a surfactant. At the same time, plants selected from these weed species and also blackgrass (Alopecurus myosuroides), galium (catchweed bedstraw, Galium aparine), wheat (Triticum aestivum), and corn (Zea mays) were planted in pots containing the same blend of loam soil and sand and treated with postemergence applications of test chemicals formulated in the same manner. Plants ranged in height from 2 to 10 cm and were in the one- to two-leaf stage for the postemergence treatment. Treated plants and untreated controls were maintained in a greenhouse for approximately 10 d, after which time all treated plants were compared to untreated controls and visually evaluated for injury. Plant response ratings, summarized in Table A, are based on a 0 to 100 scale where 0 is no effect and 100 is complete control. A dash (-) response means no test result.

[2] = tested on: foxtail, giant (giant foxtail, Setaria faberii); experiment: as above; conditions: approx. 10 d, 0 = no effect, 100 = complete control
Source text: as §1

kochia (Kochia scoparia) [3] = experiment: as above; conditions: approx. 10 d, 0 = no effect, 100 = complete control
Source text: as §1

[4] = tested on: pigweed (Amaranthus retroflexus); experiment: as above; conditions: approx. 10 d, 0 = no effect, 100 = complete control
Source text: as §1

[5] = tested on: ragweed (common ragweed, Ambrosia elation); experiment: as above; conditions: approx. 10 d, 0 = no effect, 100 = complete control
Source text: as §1

[6] = tested on: ryegrass, Italian (Italian ryegrass, Lolium multiflorum); experiment: as above; conditions: approx. 10 d, 0 = no effect, 100 = complete control
Source text: as §1

[7] = tested on: barnyardgrass (Echinochloa crus-galli); experiment: Test A postemergence application, visual injury rating; conditions: approx. 10 d, 0 = no effect, 100 = complete control
Source text: as §1

[8] = tested on: blackgrass (Alopecurus myosuroides); experiment: as above; conditions: approx. 10 d, 0 = no effect, 100 = complete control
Source text: as §1

corn (Zea mays) = experiment: as above; conditions: approx. 10 d, 0 = no effect, 100 = complete control
Source text: as §1

[9] = tested on: foxtail, giant (giant foxtail, Setaria faberii); experiment: as above; conditions: approx. 10 d, 0 = no effect, 100 = complete control
Source text: as §1

[10] = tested on: galium (catchweed bedstraw, Galium aparine); experiment: as above; conditions: approx. 10 d, 0 = no effect, 100 = complete control
Source text: as §1

kochia (Kochia scoparia) [11] = experiment: as above; conditions: approx. 10 d, 0 = no effect, 100 = complete control
Source text: as §1

[12] = tested on: pigweed (Amaranthus retroflexus); experiment: as above; conditions: approx. 10 d, 0 = no effect, 100 = complete control
Source text: as §1

[13] = tested on: ragweed (common ragweed, Ambrosia elation); experiment: as above; conditions: approx. 10 d, 0 = no effect, 100 = complete control
Source text: as §1

[14] = tested on: ryegrass, Italian (Italian ryegrass, Lolium multiflorum); experiment: as above; conditions: approx. 10 d, 0 = no effect, 100 = complete control
Source text: as §1

[15] = tested on: wheat (Triticum aestivum); experiment: as above; conditions: approx. 10 d, 0 = no effect, 100 = complete control
Source text: as §1

[16] = tested on: barnyardgrass (Echinochloa crus-galli); experiment: Test B flooded paddy test, visual plant response rating; conditions: 250 g ai/ha; applied to paddy water at 2-leaf stage; rated after 13 to 15 days; scale 0 to 100, 0 is no effect, 100 is complete control
Source text: (§2) At time of treatment, test pots were flooded to 3 cm above the soil surface, treated by application of test compounds directly to the paddy water, and then maintained at that water depth for the duration of the test. Treated plants and controls were maintained in a greenhouse for 13 to 15 days, after which time all species were compared to controls and visually evaluated. Plant response ratings, summarized in Table B, are based on a scale of 0 to 100 where 0 is no effect and 100 is complete control. A dash (-) response means no test result.

[17] = tested on: ducksalad (Heteranthera limosa); experiment: as above; conditions: 250 g ai/ha; applied to paddy water at 2-leaf stage; rated after 13 to 15 days; scale 0 to 100, 0 is no effect, 100 is complete control
Source text: as §2

rice (Oryza sativa) = experiment: as above; conditions: 250 g ai/ha; applied to paddy water at 2-leaf stage; rated after 13 to 15 days; scale 0 to 100, 0 is no effect, 100 is complete control
Source text: as §2

[18] = tested on: sedge, umbrella (small-flower umbrella sedge, Cyperus difformis); experiment: as above; conditions: 250 g ai/ha; applied to paddy water at 2-leaf stage; rated after 13 to 15 days; scale 0 to 100, 0 is no effect, 100 is complete control
Source text: as §2

Row | Compound | Barnyardgrass plant response rating (0 to 100 scale) ([1]; 125 g ai/ha) | Barnyardgrass plant response rating (0 to 100 scale) ([1]; 500 g ai/ha) | Foxtail, Giant plant response rating (0 to 100 scale) ([2]; 125 g ai/ha) | Foxtail, Giant plant response rating (0 to 100 scale) ([2]; 500 g ai/ha) | Kochia plant response rating (0 to 100 scale) (kochia (Kochia scoparia) [3]; 125 g ai/ha) | Pigweed plant response rating (0 to 100 scale) ([4]; 125 g ai/ha) | Pigweed plant response rating (0 to 100 scale) ([4]; 500 g ai/ha) | Ragweed plant response rating (0 to 100 scale) ([5]; 125 g ai/ha) | Ragweed plant response rating (0 to 100 scale) ([5]; 500 g ai/ha) | Ryegrass, Italian plant response rating (0 to 100 scale) ([6]; 125 g ai/ha) | Ryegrass, Italian plant response rating (0 to 100 scale) ([6]; 500 g ai/ha) | Barnyardgrass plant response rating (0 to 100 scale) ([7]; 125 g ai/ha) | Barnyardgrass plant response rating (0 to 100 scale) ([7]; 500 g ai/ha) | Blackgrass plant response rating (0 to 100 scale) ([8]; 125 g ai/ha) | Blackgrass plant response rating (0 to 100 scale) ([8]; 500 g ai/ha) | Corn plant response rating (0 to 100 scale) (corn (Zea mays); 125 g ai/ha) | Corn plant response rating (0 to 100 scale) (corn (Zea mays); 500 g ai/ha) | Foxtail, Giant plant response rating (0 to 100 scale) ([9]; 125 g ai/ha) | Foxtail, Giant plant response rating (0 to 100 scale) ([9]; 500 g ai/ha) | Galium plant response rating (0 to 100 scale) ([10]; 125 g ai/ha) | also measured
1 | O=C(Nc1cccc(F)c1F)C1c2nncn2CC1c1ccc(Cl)cc1 (centres unmarked) [Compound 7] | 30 | 70 | 40 | 80 | 0 | 0 | 20 | 0 | 50 | 0 | 0 | 20 | 70 | 0 | 0 | 20 | 30 | 20 | 70 | 40 | Kochia plant response rating (0 to 100 scale) (kochia (Kochia scoparia) [3]; 500 g ai/ha): 40; Galium plant response rating (0 to 100 scale) ([10]; 500 g ai/ha): 50; Kochia plant response rating (0 to 100 scale) (kochia (Kochia scoparia) [11]; 125 g ai/ha): 0; Kochia plant response rating (0 to 100 scale) (kochia (Kochia scoparia) [11]; 500 g ai/ha): 40; Pigweed plant response rating (0 to 100 scale) ([12]; 125 g ai/ha): 0; Pigweed plant response rating (0 to 100 scale) ([12]; 500 g ai/ha): 50; Ragweed plant response rating (0 to 100 scale) ([13]; 125 g ai/ha): 0; Ragweed plant response rating (0 to 100 scale) ([13]; 500 g ai/ha): 60; Ryegrass, Italian plant response rating (0 to 100 scale) ([14]; 125 g ai/ha): 0; Ryegrass, Italian plant response rating (0 to 100 scale) ([14]; 500 g ai/ha): 20; Wheat plant response rating (0 to 100 scale) ([15]; 125 g ai/ha): 0; Wheat plant response rating (0 to 100 scale) ([15]; 500 g ai/ha): 20; Plant response rating, Flood, Barnyardgrass [16]: 0; Plant response rating, Flood, Ducksalad [17]: 50; Plant response rating, Flood, Rice (rice (Oryza sativa)): 15; Plant response rating, Flood, Sedge, Umbrella [18]: 0
2 | CCc1nnc2n1CC(c1ccc(C(F)(F)F)cc1)C2C(=O)Nc1cccc(F)c1F (centres unmarked) [Compound 8, N-(2,3-difluorophenyl)-3-ethyl-6,7-dihydro-6-[4-(trifluoromethyl)phenyl]-5H-pyrrolo[2,1-c]-1,2,4-triazole-7-carboxamide] | 30 | 70 | 30 | 90 | 0 | 20 | 50 | 0 | 0 | 0 | 0 | 20 | 50 | 0 | 0 | 0 | 0 | 20 | 60 | 30 | Galium plant response rating (0 to 100 scale) ([10]; 500 g ai/ha): 50; Kochia plant response rating (0 to 100 scale) (kochia (Kochia scoparia) [11]; 125 g ai/ha): 0; Kochia plant response rating (0 to 100 scale) (kochia (Kochia scoparia) [11]; 500 g ai/ha): 40; Pigweed plant response rating (0 to 100 scale) ([12]; 125 g ai/ha): 20; Pigweed plant response rating (0 to 100 scale) ([12]; 500 g ai/ha): 60; Ragweed plant response rating (0 to 100 scale) ([13]; 125 g ai/ha): 0; Ragweed plant response rating (0 to 100 scale) ([13]; 500 g ai/ha): 20; Ryegrass, Italian plant response rating (0 to 100 scale) ([14]; 125 g ai/ha): 0; Ryegrass, Italian plant response rating (0 to 100 scale) ([14]; 500 g ai/ha): 0; Wheat plant response rating (0 to 100 scale) ([15]; 125 g ai/ha): 0; Wheat plant response rating (0 to 100 scale) ([15]; 500 g ai/ha): 0; Plant response rating, Flood, Barnyardgrass [16]: 0; Plant response rating, Flood, Ducksalad [17]: 40; Plant response rating, Flood, Rice (rice (Oryza sativa)): 0; Plant response rating, Flood, Sedge, Umbrella [18]: 0
3 | CCc1ccc(C2Cn3c(C)nnc3C2C(=O)Nc2cccc(F)c2C)cc1 (centres unmarked) [Compound 9] | 40 | 70 | 60 | 90 | 0 | 0 | 0 | 0 | 0 | 0 | 0 | 30 | 70 | 20 | 70 | 0 | 0 | 0 | 50 | 0 | Kochia plant response rating (0 to 100 scale) (kochia (Kochia scoparia) [3]; 500 g ai/ha): 0; Galium plant response rating (0 to 100 scale) ([10]; 500 g ai/ha): 20; Kochia plant response rating (0 to 100 scale) (kochia (Kochia scoparia) [11]; 125 g ai/ha): 0; Kochia plant response rating (0 to 100 scale) (kochia (Kochia scoparia) [11]; 500 g ai/ha): 0; Pigweed plant response rating (0 to 100 scale) ([12]; 125 g ai/ha): 0; Pigweed plant response rating (0 to 100 scale) ([12]; 500 g ai/ha): 0; Ragweed plant response rating (0 to 100 scale) ([13]; 125 g ai/ha): 0; Ragweed plant response rating (0 to 100 scale) ([13]; 500 g ai/ha): 0; Ryegrass, Italian plant response rating (0 to 100 scale) ([14]; 125 g ai/ha): 0; Ryegrass, Italian plant response rating (0 to 100 scale) ([14]; 500 g ai/ha): 20; Wheat plant response rating (0 to 100 scale) ([15]; 125 g ai/ha): 0; Wheat plant response rating (0 to 100 scale) ([15]; 500 g ai/ha): 0; Plant response rating, Flood, Barnyardgrass [16]: 20; Plant response rating, Flood, Ducksalad [17]: 75; Plant response rating, Flood, Rice (rice (Oryza sativa)): 15; Plant response rating, Flood, Sedge, Umbrella [18]: 0
4 | Cc1ccc(C2Cn3c(C)nnc3C2C(=O)Nc2cccc(F)c2C)cc1C (centres unmarked) [Compound 10] | 50 | 90 | 80 | 90 | 0 | 0 | 20 | 0 | 0 | 0 | 70 | 50 | 90 | 0 | 70 | 20 | 40 | 30 | 80 | 0 | Kochia plant response rating (0 to 100 scale) (kochia (Kochia scoparia) [3]; 500 g ai/ha): 50; Galium plant response rating (0 to 100 scale) ([10]; 500 g ai/ha): 50; Kochia plant response rating (0 to 100 scale) (kochia (Kochia scoparia) [11]; 125 g ai/ha): 0; Kochia plant response rating (0 to 100 scale) (kochia (Kochia scoparia) [11]; 500 g ai/ha): 30; Pigweed plant response rating (0 to 100 scale) ([12]; 125 g ai/ha): 0; Pigweed plant response rating (0 to 100 scale) ([12]; 500 g ai/ha): 0; Ragweed plant response rating (0 to 100 scale) ([13]; 125 g ai/ha): 0; Ragweed plant response rating (0 to 100 scale) ([13]; 500 g ai/ha): 20; Ryegrass, Italian plant response rating (0 to 100 scale) ([14]; 125 g ai/ha): 0; Ryegrass, Italian plant response rating (0 to 100 scale) ([14]; 500 g ai/ha): 30; Wheat plant response rating (0 to 100 scale) ([15]; 125 g ai/ha): 30; Wheat plant response rating (0 to 100 scale) ([15]; 500 g ai/ha): 30; Plant response rating, Flood, Barnyardgrass [16]: 20; Plant response rating, Flood, Ducksalad [17]: 45; Plant response rating, Flood, Rice (rice (Oryza sativa)): 0; Plant response rating, Flood, Sedge, Umbrella [18]: 0
